According to ChEMBL document CHEMBL4304797, “Discovery of GSK2798745: A Clinical Candidate for Inhibition of Transient Receptor Potential Vanilloid 4 (TRPV4)” (ACS Med Chem Lett, 2019):

Legend:
[1] = Lipophilicity, chromatographic logD of compound at pH 7.4; conditions: buffer
[2] = Unbound fraction in Sprague-Dawley rat plasma; format: ADME, cell-free
[3] = Oral bioavailability in Sprague-Dawley rat at 2 mg/kg measured after 24 hrs by HPLC-MS/MS analysis; format: ADME, organism-based; conditions: in vivo
[4] = Clearance in Sprague-Dawley rat at 1 mg/kg, iv measured after 24 hrs by HPLC-MS/MS analysis; format: ADME, organism-based; conditions: in vivo
[5] = Unbound volume of distribution at steady state in Sprague-Dawley rat; format: ADME; conditions: in vivo
[6] = Volume of distribution at steady state in Sprague-Dawley rat at 1 mg/kg, iv measured after 24 hrs by HPLC-MS/MS analysis; format: ADME, organism-based; conditions: in vivo, read-out: Vdss
[7] = Mean residence time in Sprague-Dawley rat at 1 mg/kg, iv measured after 24 hrs by HPLC-MS/MS analysis; format: ADME, organism-based; conditions: in vivo
[8] = Unbound clearance in Sprague-Dawley rat; format: ADME; conditions: in vivo
[9] = biological target: Transient receptor potential cation channel subfamily V member 4 (Homo sapiens, UniProt Q9HBA0); experiment: Inhibition of human TRPV4 expressed in baculovirus infected HEK/MSR 2 cells pre-incubated for 10 mins followed by GSK634775A addition by Fura-2 dye based FLIPR assay
Sequence of Transient receptor potential cation channel subfamily V member 4 (Homo sapiens, UniProt Q9HBA0) (Q9HBA0 whole entry): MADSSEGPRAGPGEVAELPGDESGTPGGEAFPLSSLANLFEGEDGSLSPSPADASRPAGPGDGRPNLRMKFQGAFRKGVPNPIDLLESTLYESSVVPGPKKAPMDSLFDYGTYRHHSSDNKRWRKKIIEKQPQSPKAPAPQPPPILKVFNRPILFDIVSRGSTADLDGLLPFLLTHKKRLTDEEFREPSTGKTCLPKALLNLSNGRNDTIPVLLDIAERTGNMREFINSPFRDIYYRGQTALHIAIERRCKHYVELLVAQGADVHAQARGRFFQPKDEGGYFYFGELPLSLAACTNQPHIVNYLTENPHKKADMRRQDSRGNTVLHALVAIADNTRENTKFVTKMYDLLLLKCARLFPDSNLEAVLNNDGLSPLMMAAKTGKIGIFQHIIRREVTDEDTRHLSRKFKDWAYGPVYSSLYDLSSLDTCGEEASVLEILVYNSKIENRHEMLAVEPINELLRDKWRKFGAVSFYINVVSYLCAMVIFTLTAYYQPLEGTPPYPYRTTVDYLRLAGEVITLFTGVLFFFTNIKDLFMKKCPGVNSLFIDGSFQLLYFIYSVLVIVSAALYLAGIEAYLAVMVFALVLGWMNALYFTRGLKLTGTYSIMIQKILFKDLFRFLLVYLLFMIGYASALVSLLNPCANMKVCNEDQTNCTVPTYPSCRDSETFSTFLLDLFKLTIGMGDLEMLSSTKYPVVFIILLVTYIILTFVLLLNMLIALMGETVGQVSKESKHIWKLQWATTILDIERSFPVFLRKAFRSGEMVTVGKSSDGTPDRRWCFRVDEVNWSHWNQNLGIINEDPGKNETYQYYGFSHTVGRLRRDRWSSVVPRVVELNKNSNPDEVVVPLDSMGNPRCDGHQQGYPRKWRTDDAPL

[10] = biological target: Transient receptor potential cation channel subfamily V member 4 (Rattus norvegicus, UniProt Q9ERZ8); experiment: Inhibition of rat TRPV4 expressed in baculovirus infected HEK/MSR 2 cells pre-incubated for 10 mins followed by GSK634775A addition by Fura-2 dye based FLIPR assay
Sequence of Transient receptor potential cation channel subfamily V member 4 (Rattus norvegicus, UniProt Q9ERZ8) (Q9ERZ8 whole entry): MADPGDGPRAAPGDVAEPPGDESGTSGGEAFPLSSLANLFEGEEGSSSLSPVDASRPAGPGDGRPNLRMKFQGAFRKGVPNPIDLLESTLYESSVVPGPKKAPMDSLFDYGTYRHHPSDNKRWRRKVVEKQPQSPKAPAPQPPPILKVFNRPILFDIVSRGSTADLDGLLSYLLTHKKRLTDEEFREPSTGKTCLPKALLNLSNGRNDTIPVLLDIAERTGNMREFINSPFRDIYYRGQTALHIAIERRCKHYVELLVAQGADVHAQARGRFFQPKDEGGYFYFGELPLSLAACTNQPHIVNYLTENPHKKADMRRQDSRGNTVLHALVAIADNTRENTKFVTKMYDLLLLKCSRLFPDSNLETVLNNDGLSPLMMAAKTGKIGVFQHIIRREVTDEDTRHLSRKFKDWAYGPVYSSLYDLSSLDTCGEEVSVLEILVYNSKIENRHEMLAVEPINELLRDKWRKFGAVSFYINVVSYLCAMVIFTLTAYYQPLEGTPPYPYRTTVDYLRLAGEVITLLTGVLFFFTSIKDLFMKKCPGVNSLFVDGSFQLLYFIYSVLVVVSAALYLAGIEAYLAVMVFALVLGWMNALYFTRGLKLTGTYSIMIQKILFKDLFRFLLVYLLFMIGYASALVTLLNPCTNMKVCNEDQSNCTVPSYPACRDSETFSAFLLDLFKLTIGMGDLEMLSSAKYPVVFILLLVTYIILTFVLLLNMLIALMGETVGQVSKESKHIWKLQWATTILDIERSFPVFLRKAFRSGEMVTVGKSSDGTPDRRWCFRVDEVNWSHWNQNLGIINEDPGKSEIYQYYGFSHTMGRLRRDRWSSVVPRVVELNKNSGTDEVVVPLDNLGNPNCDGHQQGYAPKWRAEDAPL

SMILES	ChromLogD [1]	fraction unbound [2]	bioavailability [3]	clearance [4]	Vduss [5]	Vd [6]	MRT [7]	CL free [8]	IC50 [9]	IC50 [10]
N#Cc1ccc2ncn(C[C@H]3CCC[C@]4(C3)CN(c3ccc(F)cc3)C(=O)O4)c2c1 (racemic)	4.5	0.065	100%	23 mL/min/kg	61 L/kg	4 L/kg	3.1 h	350 mL/min/kg	1.9 µM	
COc1cnc(N2C[C@@]3(CCC[C@](C)(Cn4cnc5ccc(C#N)cc54)C3)OC2=O)cn1	4.8							400 mL/min/kg	0.014 µM	
Cc1ccccc1N1C[C@@]2(CCC[C@](C)(Cn3cnc4ccc(C#N)cc43)C2)OC1=O	4.8								0.0017 µM	
N#Cc1ccc2ncn(C[C@H]3CCC[C@]4(C3)CN(c3cccc(Cl)c3)C(=O)O4)c2c1	5.3								0.24 µM	
CCOc1ccc(N2C[C@@]3(CCC[C@H](Cn4cnc5ccc(C#N)cc54)C3)OC2=O)cc1	4.8								0.14 µM	
CC(C)(C)N1C[C@@]2(CCC[C@H](Cn3cnc4ccc(C#N)cc43)C2)OC1=O (racemic)	4		44%	55 mL/min/kg		1.8 L/kg	0.5 h		5.2 µM	
C[C@]1(Cn2cnc3ccc(C#N)cc32)CCC[C@@]2(CN(c3cccc(Cl)c3)C(=O)O2)C1	5.7								0.048 µM	
C[C@]1(Cn2cnc3ccc(C#N)cc32)CCC[C@@]2(CN(c3ccc(F)cc3)C(=O)O2)C1	4.9		100%	39 mL/min/kg		6.5 L/kg	2.8 h		0.096 µM	
CCOc1cnc(N2C[C@@]3(CCC[C@](C)(Cn4cnc5ccc(C#N)cc54)C3)OC2=O)cn1	5.5	0.037	100%	17 mL/min/kg		5.4 L/kg	5.2 h	460 mL/min/kg	0.0042 µM	
CCOc1ccc(N2C[C@@]3(CCC[C@](C)(Cn4cnc5ccc(C#N)cc54)C3)OC2=O)cc1	5.4		29%	140 mL/min/kg		7.2 L/kg	0.9 h		0.0052 µM	
N#Cc1ccc2ncn(C[C@H]3CCC[C@]4(C3)CN(c3ccccc3)C(=O)O4)c2c1	4.6								0.82 µM	
CC(C)(C)CN1C[C@@]2(CCC[C@H](C(C)(C)n3cnc4ccc(C#N)cc43)C2)OC1=O (racemic)	4.6		8%	70 mL/min/kg		1.1 L/kg	0.3 h		> 25 µM	
CCOc1ccc(N2C[C@@]3(CCC[C@](C)(Cn4cnc5ccc(C#N)cc54)C3)OC2=O)cn1		0.031		24 mL/min/kg			1.6 h		0.0031 µM	
CCOc1cccc(N2C[C@@]3(CCC[C@H](Cn4cnc5ccc(C#N)cc54)C3)OC2=O)c1	5								0.074 µM	
N#Cc1ccc2ncn(C[C@H]3CCC[C@]4(C3)CN(c3ccccc3F)C(=O)O4)c2c1	4.2								0.54 µM	

Further lines, results first:

ChromLogD [1]	fraction unbound [2]	bioavailability [3]	clearance [4]	Vduss [5]	Vd [6]	MRT [7]	CL free [8]	IC50 [9]	IC50 [10]	SMILES
								0.049 µM		C[C@]1(Cn2cnc3ccc(C#N)cc32)CCC[C@@]2(CN(c3ccccc3)C(=O)O2)C1
5.3							340 mL/min/kg	0.0015 µM		C[C@]1(Cn2cnc3ccc(C#N)cc32)CCC[C@@]2(CN(c3cnc(C4CC4)cn3)C(=O)O2)C1
			14 mL/min/kg			1.9 h		0.06 µM		CCOc1ccc(N2C[C@@]3(CCC[C@](C)(Cn4cnc5ccc(C#N)cc54)C3)OC2=O)nn1
4.8								0.0025 µM		C[C@]1(Cn2cnc3ccc(C#N)cc32)CCC[C@@]2(CN(c3ccccc3Cl)C(=O)O2)C1
5.3								0.0016 µM		CCOc1cccc(N2C[C@@]3(CCC[C@](C)(Cn4cnc5ccc(C#N)cc54)C3)OC2=O)c1
4	0.082	59%	6.5 mL/min/kg		1.9 L/kg	4.9 h	79 mL/min/kg	0.0018 µM	0.0016 µM	CC(C)(O)c1cnc(N2C[C@@]3(CCC[C@](C)(Cn4cnc5ccc(C#N)cc54)C3)OC2=O)cn1 [GSK2798745]
4.6								0.31 µM		Cc1ccccc1N1C[C@@]2(CCC[C@H](Cn3cnc4ccc(C#N)cc43)C2)OC1=O
4.6	0.036	100%	26 mL/min/kg		1.4 L/kg	1 h	720 mL/min/kg	0.0012 µM		COc1ccccc1N1C[C@@]2(CCC[C@](C)(Cn3cnc4ccc(C#N)cc43)C2)OC1=O
4.3								0.063 µM		N#Cc1ccc2ncn(C[C@H]3CCC[C@]4(C3)CN(c3ccccc3Cl)C(=O)O4)c2c1
4.2								0.06 µM		Cc1cnc(N2C[C@@]3(CCC[C@](C)(Cn4cnc5ccc(C#N)cc54)C3)OC2=O)cn1
4.2								0.34 µM		COc1ccccc1N1C[C@@]2(CCC[C@H](Cn3cnc4ccc(C#N)cc43)C2)OC1=O
4.9								0.0052 µM		C[C@]1(Cn2cnc3ccc(C#N)cc32)CCC[C@@]2(CN(c3ccccc3F)C(=O)O2)C1
6.3								0.0012 µM		CC(C)(C)c1cnc(N2C[C@@]3(CCC[C@](C)(Cn4cnc5ccc(C#N)cc54)C3)OC2=O)cn1
4.6	0.14	32%	63 mL/min/kg		2.1 L/kg	0.5 h	450 mL/min/kg	0.0005 µM		CC(C)(C)CN1C[C@@]2(CCC[C@](C)(Cn3cnc4ccc(C#N)cc43)C2)OC1=O
4.5	0.32	63%	64 mL/min/kg	8.1 L/kg	2.6 L/kg	0.7 h	200 mL/min/kg	0.016 µM	0.0055 µM	CC(C)(C)CN1C[C@@]2(CCC[C@H](Cn3cnc4ccc(C#N)cc43)C2)OC1=O
